Assay results: patent publication US20070197590A1, “SUBSTITUTED DIPIPERIDINE CCR2 ANTAGONISTS” (priority 2006, published 2007)

The compounds below were run against T1, CCR2 (Homo sapiens, UniProt P41597) (assay: MCP-1 Receptor Binding Assay in THP-1 Cells). Conditions: THP-1 cells, 0.5 nM 125I labeled MCP-1, 2 hours at 30° C.; read-out: Inhibition of MCP-1 Binding IC50.
T1 construct: host or cells: THP-1 cells
T1 sequence (P41597 1-360 isoform P41597-2): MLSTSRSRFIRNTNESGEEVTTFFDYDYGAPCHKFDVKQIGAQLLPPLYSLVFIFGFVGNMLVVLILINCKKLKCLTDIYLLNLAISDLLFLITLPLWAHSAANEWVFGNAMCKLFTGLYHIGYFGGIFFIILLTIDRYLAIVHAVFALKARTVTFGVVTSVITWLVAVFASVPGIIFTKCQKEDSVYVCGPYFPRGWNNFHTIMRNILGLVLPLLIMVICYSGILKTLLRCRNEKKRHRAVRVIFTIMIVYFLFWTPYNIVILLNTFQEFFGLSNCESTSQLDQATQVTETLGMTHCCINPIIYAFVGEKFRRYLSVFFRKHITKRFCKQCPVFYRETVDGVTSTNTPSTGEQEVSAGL
Protocol: THP-1 cells were obtained from American Type Culture Collection (Manassas, Va., USA). The THP-1 cells were grown in RPMI-1640 supplemented with 10% fetal bovine serum in a humidified 5% CO2 atmosphere at 37° C. The cell density was maintained […].
THP-1 cells were incubated with 0.5 nM ^125, labeled MCP-1 (Perkin-Elmer Life Sciences, Inc. Boston, Mass.) in the presence of varying concentrations of either unlabeled MCP-1 (R & D Systems, Minneapolis, Minn.) or test compound for 2 hours at 30° C. in a 96 well plate. Cells were then harvested onto a filter plate, dried, and 20 μL of Microscint 20 was added to each well. Plates were counted in a TopCount NXT, Microplate Scintillation & Luminescence Counter (Perkin-Elmer Life Sciences, Inc. Boston, Mass.). Blank values (buffer only) were subtracted from all values and drug treated values were compared to vehicle treated values. 1 μM cold MCP-1 was used for nonspecific binding.
Table 1 lists IC50 values for inhibition of MCP-1 binding to CCR2 obtained for test compounds of the invention.

Compound	IC50 [µM]
COc1ccc(/C=C/C(=O)N2CCC(O)(C(O)CN3CCC(c4ccc(C(F)(F)F)cc4)CC3)CC2)cc1OC (stereo not drawn) [Compound 140]	15.4
O=C(/C=C/c1cc(C(F)(F)F)cc(C(F)(F)F)c1)N1CCC(O)(C(O)CN2CCC(c3c[nH]c4ccc(N5CCOCC5)cc34)CC2)CC1 (stereo not drawn) [Compound 150]	8.7
O=C(Nc1cc(F)ccc1Cl)N1CCC(O)(C(O)CN2CCC(c3c[nH]c4ccc(F)cc34)CC2)CC1 (stereo not drawn) [Compound 161]	8.3
OC(CN1CCC(c2c[nH]c3ccc(F)cc23)CC1)C1(O)CCN(C(=S)Nc2ccc(Cl)c(Cl)c2)CC1 (stereo not drawn) [Compound 162]	8.1
O=C(Nc1ccc(F)c(F)c1)N1CCC(O)(C(O)CN2CCC(c3c[nH]c4ccc(N5CCOCC5)cc34)CC2)CC1 (stereo not drawn) [Compound 179, 4-hydroxy-4-{1-hydroxy-2-[4-(5-morpholin-4 yl-1H-indol-3-yl)-piperidin-1-yl]-ethyl}-piperidine-1-carboxylic acid (3,4-difluoro-phenyl)-amide]	5.8

Continued, values first:

IC50 [µM]	Compound
4.2	COc1ccc(C2CCN(CC(O)C3CCN(C(=S)Nc4cc(F)cc(F)c4F)CC3)CC2)cc1 (stereo not drawn) [Compound 109, 4-{1-hydroxy-2-[4-(4-methoxy-phenyl)-piperidin-1-yl]-ethyl}-piperidine-1-carbothioic acid (2,3,5-trifluoro-phenyl)-amide]
4.2	O=C(Nc1cc(F)cc(C(F)(F)F)c1)N1CCC(O)(C(O)CN2CCC(c3c[nH]c4ccc(N5CCOCC5)cc34)CC2)CC1 (stereo not drawn) [Compound 180, 4-hydroxy-4-{1-hydroxy-2-[4-(5-morpholin-4-yl-1H-indol-3-yl)-piperidin-1-yl]-ethyl}-piperidine-1-carboxylic acid (3-fluoro-5-trifluoromethyl-phenyl)-amide]
3.7	O=C(OCc1ccccc1)N1CCC(O)(C(O)CN2CCC(c3ccc(Cl)cc3)CC2)CC1 (stereo not drawn) [Compound 112, 4-{2-[4-(4-chloro-phenyl)-piperidin-1-yl]-1-hydroxy-ethyl}-4-hydroxy-piperidine-1-carboxylic acid benzyl ester]
3.4	OC(CN1CCC(c2ccc(C(F)(F)F)cc2)CC1)C1(O)CCN(C(=S)Nc2ccc(Cl)c(Cl)c2)CC1 (stereo not drawn) [Compound 144, 4-hydroxy-4-{1-hydroxy-2-[4-(4-trifluoromethyl-phenyl)-piperidin-1-yl]-ethyl}-piperidine-1-carbothioic acid (3,4-dichloro-phenyl)-amide]
3.1	OC(CN1CCC(c2ccc(Cl)cc2)CC1)C1(O)CCN(C(=S)Nc2cc(F)cc(F)c2F)CC1 (stereo not drawn) [Compound 166, 4-{2-[4-(4-chloro-phenyl)-piperidin-1-yl]-1-hydroxy-ethyl}-4-hydroxy-piperidine-1-carbothioic acid (2,3,5-trifluoro-phenyl)-amide]
3	O=C(Nc1cc(F)cc(F)c1)N1CCC(O)(C(O)CN2CCC(c3ccc(F)cc3)CC2)CC1 (stereo not drawn) [Compound 133, 4-{2-[4-(4-fluoro-phenyl)-piperidin-1-yl]-1-hydroxy-ethyl}-4-hydroxy-piperidine-1-carboxylic acid (3,5-difluoro-phenyl)-amide]
3	Nc1ccc2[nH]cc(C3CCN(CC(O)C4CCN(C(=O)OCc5ccccc5)CC4)CC3)c2c1 (stereo not drawn) [Compound 147, 4-{2-[4-(5-amino-1H-indol-3-yl)-piperidin-1-yl]-1-hydroxy-ethyl}-piperidine-1-carboxylic acid benzyl ester]
2.8	O=C(Nc1ccc(F)c(F)c1)N1CCC(O)(C(O)CN2CCC(c3ccc(C(F)(F)F)cc3)CC2)CC1 (stereo not drawn) [Compound 141, 4-hydroxy-4-{1-hydroxy-2-[4-(4-trifluoromethyl-phenyl)-piperidin-1-yl]-ethyl}-piperidine-1-carboxylic acid (3,4-difluoro-phenyl)-amide]
2.7	COc1ccc(C2CCN(CC(O)C3CCN(C(=S)Nc4cccc(C#N)c4)CC3)CC2)cc1 (stereo not drawn) [Compound 104, 4-{1-hydroxy-2-[4-(4-methoxy-phenyl)-piperidin-1-yl]-ethyl}-piperidine-1-carbothioic acid (3-cyano-phenyl)-amide]
2.7	O=C(CCc1ccc(Cl)c(Cl)c1)N1CCC(O)(C(O)CN2CCC(c3c[nH]c4ccc(F)cc34)CC2)CC1 (stereo not drawn) [Compound 168, 3-(3,4-dichloro-phenyl)-1-(4-{2-[4-(5-fluoro-1H-indol-3-yl)-piperidin-1-yl]-1-hydroxy-ethyl}-4-hydroxy-piperidin-1-yl)-propan-1-one]
2.6	COc1ccc(C2CCN(CC(O)C3CCN(C(=S)Nc4cc(OC)cc(OC)c4)CC3)CC2)cc1 (stereo not drawn) [Compound 111, 4-{1-hydroxy-2-[4-(4-methoxy-phenyl)-piperidin-1-yl]-ethyl}-piperidine-1-carbothioic acid (3,5-dimethoxy-phenyl)-amide]
1.9	OC(CN1CCC(c2ccc(C(F)(F)F)cc2)CC1)C1(O)CCN(C(=S)Nc2cc(Cl)cc(Cl)c2)CC1 (stereo not drawn) [Compound 145, 4-hydroxy-4-{1-hydroxy-2-[4-(4-trifluoromethyl-phenyl)-piperidin-1-yl]-ethyl}-piperidine-1-carbothioic acid (3,5-dichloro-phenyl)-amide]
1.8	O=C(/C=C/c1cc(F)cc(F)c1)N1CCC(O)(C(O)CN2CCC(O)(c3ccc(F)cc3)CC2)CC1 (stereo not drawn) [Compound 154]
1.3	O=C(/C=C/c1cc(F)cc(F)c1)N1CCC(O)(C(O)CN2CCC(c3c[nH]c4ccc(N5CCOCC5)cc34)CC2)CC1 (stereo not drawn) [Compound 149]
1.1	O=C(/C=C/c1cc(F)c(F)c(F)c1)N1CCC(O)(C(O)CN2CCC(c3c[nH]c4ccc(N5CCOCC5)cc34)CC2)CC1 (stereo not drawn) [Compound 148]
1	O=C(Nc1ccc(Cl)c(Cl)c1)N1CCC(O)(C(O)CN2CCC(c3ccc(C(F)(F)F)cc3)CC2)CC1 (stereo not drawn) [Compound 143, 4-hydroxy-4-{1-hydroxy-2-[4-(4-trifluoromethyl-phenyl)-piperidin-1-yl]-ethyl}-piperidine-1-carboxylic acid (3,4-dichloro-phenyl)-amide]

Same assay, conditions: test concentration of 25 μM; given where an IC50 value was not obtained; read-out: Inhibition of MCP-1 Binding, percent inhibition

inhibition at 25 µM [%]	Compound
50	COc1ccc(C2CCN(CC(O)C3CCN(C(=O)Nc4ccc5c(c4)OCO5)CC3)CC2)cc1 (stereo not drawn) [Compound 100, 4-{1-hydroxy-2-[4-(4-methoxy-phenyl)-piperidin-1-yl]-ethyl}-piperidine-1-carboxylic acid benzo[1,3]dioxol-5-ylamide]
51	COc1ccc(C2CCN(CC(O)C3CCN(C(=O)Nc4ccc(C(F)(F)F)cc4Cl)CC3)CC2)cc1 (stereo not drawn) [Compound 101, 4-{1-hydroxy-2-[4-(4-methoxy-phenyl)-piperidin-1-yl]-ethyl}-piperidine-1-carboxylic acid (2-chloro-4-trifluoromethyl-phenyl)-amide]
43	COc1ccc(C2CCN(CC(O)C3(O)CCN(C(=S)Nc4cc(OC)cc(OC)c4)CC3)CC2)cc1 (stereo not drawn) [Compound 119, 4-hydroxy-4-{1-hydroxy-2-[4-(4-methoxy-phenyl)-piperidin-1-yl]-ethyl}-piperidine-1-carbothioic acid (3,5-dimethoxy-phenyl)-amide]
51	OC(CN1CCC(c2c[nH]c3ccc(N4CCOCC4)cc23)CC1)C1(O)CCN(c2nccc(C(F)(F)F)n2)CC1 (stereo not drawn) [Compound 122, 4-{1-hydroxy-2-[4-(5-morpholin-4-yl-1H-indol-3-yl)-piperidin-1-yl]-ethyl}-1-(4-trifluoromethyl-pyrimidin-2-yl)-piperidin-4-ol]
51	O=C(OCc1ccccc1)N1CCC(O)(C(O)CN2CCC(c3ccc(F)cc3)CC2)CC1 (stereo not drawn) [Compound 125, 4-{2-[4-(4-fluoro-phenyl)-piperidin-1-yl]-1-hydroxy-ethyl}-4-hydroxy-piperidine-1-carboxylic acid benzyl ester]
55	O=C(OCc1ccccc1)N1CCC(O)(C(O)CN2CCC(c3ccc(C(F)(F)F)cc3)CC2)CC1 (stereo not drawn) [Compound 126, 4-hydroxy-4-{1-hydroxy-2-[4-(4-trifluoromethyl-phenyl)-piperidin-1-yl]-ethyl}-piperidine-1-carboxylic acid benzyl ester]
59	COc1ccc(C2CCN(CC(O)C3CCN(c4ccc([N+](=O)[O-])cn4)CC3)CC2)cc1 (stereo not drawn) [Compound 127, 2-[4-(4-methoxy-phenyl)-piperidin-1-yl]-1-(5′-nitro-3,4,5,6-tetrahydro-2H-[1,2′]bipyridinyl-4-yl)-ethanol]
41	CC(C)(C)OC(=O)N1CCC(O)(C(O)CN2CCC(c3ccc(Cl)cc3)CC2)CC1 (stereo not drawn) [Compound 146, 4-{2-[4-(4-chloro-phenyl)-piperidin-1-yl]-1-hydroxy-ethyl}-4-hydroxy-piperidine-1-carboxylic acid tert-butyl ester]
42	O=C(Cc1cccc([N+](=O)[O-])c1)N1CCC(O)(C(O)CN2CCC(c3c[nH]c4ccc(N5CCOCC5)cc34)CC2)CC1 (stereo not drawn) [Compound 176, 1-(4-hydroxy-4-{1-hydroxy-2-[4-(5-morpholin-4-yl-1H-indol-3-yl)-piperidin-1-yl]-ethyl}-piperidin-1-yl)-2-(3-nitro-phenyl)-ethanone]
